Measured values as given in patent US7659249B2, “Membrane-permeable NFAT inhibitory peptide” (Japan Science and Technology Agency, priority 2002, dated 2010).
Residues, ends and D or L forms follow the SMILES beside them.

Legend:
IL-2 gene = assay: transcription of IL-2 gene in Jurkat cells stimulated with PMA and ionomycin, real-time quantitative RT-PCR; assay type: cell-based, human; conditions: 1 μM 11R-VEET
Procedure: Subsequently, 100 μl of RPMI containing 2 μM of phorbol 12-myristate 13-acetate (PMA) (available from Sigma-Aldrich Co.) and 40 μM of ionomycin (available from Sigma-Aldrich Co.) was added and culture was continued for 12 more hours. Then, the cells were recovered and using the obtained cells, the transcription amount of IL-2 gene was measured by the following real-time quantitative RT-PCR. In real-time quantitative RT-PCR, GAPDH, which is known as a housekeeping gene, was used as the inner standard substance.
RNeasy Mini Kit (available from QIAGEN K.K.) was used according to protocol and total RNA was extracted from the cells. Using the obtained total RNA, reverse transcription reaction was conducted by incubation at 22° C. for 10 minutes and then at 42° C. for 20 minutes.
Thereafter, using Light Cycler-Fast Start DNA Master SYBR Green I Kit (available from Roche Molecular Biochemicals), 20 μl of a mixed reaction solution ( 1/10 of the amount of the transcription product, 4 mM of MgCl2, 4 kinds of primers: 0.5 μM respectively, 2 μl of 10×Light Cycler-Fast Start DNA Master SYBR Green I) was prepared for amplification reaction. As the primer for human IL-2, the primer included in Competitive Quantitative RT-PCR Kit (available from Funakoshi Co., Ltd.) was used. […]

lymphocytes [1] = assay: mixed lymphocyte test, [3H]TdR incorporation; assay type: cell-based, mouse; conditions: 1 μM 11R-VEET
Procedure: Spleen cells were retrieved from a 6 to 8 week old C3H/HeN mouse and a 6 to 8 week old BALB/c mouse H-2d (available from Shimizu Laboratory Supplies Co., Ltd.). The BALB/c spleen cells were treated with mitomycin C (available from Kyowa Hakko Kogyo Co., Ltd.) and used as stimulating cells.
Subsequently, 5×10^5 of mixed cells obtained by mixing the above stimulating cells and the spleen cells derived from a C3H/HeN mouse in a ratio of 1:5 were added in each well and cultured for 90 hours in a carbon dioxide culture device set to 37° C. and carbon dioxide concentration of 5%. As control, the mixed cells were added to wells containing only a medium and cultured in the same manner.
Then, ^3H-methyl-thymidine (hereinafter referred to as [^3H]TdR, available from Amersham Pharmacia Biotech K.K.) of 0.5 μCi/well was added and culture was conducted for 6 hours. Thereafter, the cells were placed on filter paper having a diameter of 1 cm and the radioactivity of [^3H]TdR incorporated into the cells was measured by a beta counter (made by Beckman Coulter K.K.).

lymphocytes [2] = assay: mixed lymphocyte test using spleen cells from treated mouse, [3H]TdR incorporation; assay type: in vivo, C3H/HeN mouse; conditions: printed: 1 μM of 11R-VEET; method b87: 10 mg/kg intraperitoneal
Procedure: Thereafter, the cells were placed on filter paper having a diameter of 1 cm and the radioactivity of [^3H]TdR incorporated into the cells was measured by a beta counter.

transplanted beta cells = assay: beta cell transplant in diabetic model mouse, survival of transplant by Kaplan-Meier; assay type: in vivo; conditions: 10 mg/kg intraperitoneally once a day after transplant, BALB/c donor, C3H/HeN diabetic recipient
Procedure: For the transplant, a 6 week old BALB/c mouse was used as the donor and a 6 week old C3H/HeN mouse was used as the recipient.
A diabetic model mouse was prepared by intraperitoneally injecting 220 mg/kg of streptozocin (available from Sigma-Aldrich Japan K.K.) to a C3H/HeN mouse. 6 days after the streptozocin injection, the mouse in which the glucose level exceeded 350 mg/dl was determined as being hyperglycemic.
Meanwhile, the spleen of the BALB/c mouse was taken out and after subjecting to discontinuous Ficoll density gradient centrifugation, beta cells were isolated by normal collagenase digestion.
About 500 of the isolated beta cells were transplanted under the capusula of the left kidney of the above diabetic model mouse. […] The glycemia was measured and when the level thereof exceeded 200 mg/dl for 2 consecutive days, transplant rejection was considered to have occurred.

βTC6 cells [3] = assay: insulin secretion of βTC6 cells (Mouse Insulin ELISA); assay type: cell-based; conditions: 11R-VEET 10, 100, 1000 or 10000 nM, 96 hours
Procedure: The medium was replaced with a fresh medium containing […] every 24 hours. After 96 hours, the medium was replaced with a fresh medium. Culture was conducted for 1 more hour and the culture supernatant was collected. For control, βTC6 cells were cultured in the same manner, except that a medium without […] was used. Subsequently, using the collected supernatant, the secreted insulin was analyzed using Mouse Insulin ELISA (TMB) Kit (available from Shibayagi Co., Ltd.) according to protocol.

βTC6 cells [4] = assay: proliferation of βTC6 cells, [3H]TdR incorporation; assay type: cell-based; conditions: 11R-VEET 10, 100, 1000 or 10000 nM
Procedure: The medium was replaced with a fresh medium containing […] every 24 hours. Subsequently, [^3H]TdR of 1 μCi/well was added and culture was conducted for 8 more hours. For control, βTC6 cells were cultured in the same manner except that a medium without […] was used. Thereafter, the cells were placed on filter paper having a diameter of 1 cm and the radioactivity of [^3H]TdR incorporated into the cells was measured by a beta counter.

[5] = tested on: IL-2 gene (transcription); assay: half-life in T cells based on inhibitory activity to IL-2 transcription (time course in Jurkat cells); conditions: human
Procedure: Subsequently, 100 μl of RPMI containing 2 μM of PMA and 40 μM of ionomycin was added and culture was conducted further for 12 hours, 17 hours, 23 hours, 35 hours or 59 hours.
Subsequently, the relative RNA amount to GAPDH was measured by conducting RT-PCR and real-time quantitative RT-PCR and analysis in the same manner as in Example 3, except that the respective obtained cells were used as samples. The time shown in FIG. 2 refers to the total culture time.
Using 1 ml of 10% fetal bovine serum-containing RPMI containing 1 μM of FK 506, 1×10^5 Jurkat cells were cultured for 1 hour in a carbon dioxide culture device set to 37° C. and carbon dioxide concentration of 5%. Subsequently, 100 μl of RPMI containing 2 μM of PMA and 40 μM of ionomycin was added and culture was conducted further for 12 hours, 17 hours, 23 hours, 35 hours or 59 hours. Thereafter, RT-PCR and real-time quantitative RT-PCR were conducted in the same manner as in Example 3, except that the obtained culture cells were used.

| Compound | effect on transcription level of IL-2 gene (IL-2 gene) | effect on proliferation of lymphocytes (lymphocytes [1]) | effect on proliferation of lymphocytes (cells from treated mouse) (lymphocytes [2]) | survival rate of transplanted beta cells compared to control (transplanted beta cells) | insulin secretion amount of βTC6 cells (βTC6 cells [3]) | inhibitory effect to proliferation of βTC6 cells (βTC6 cells [4]) | half-life at 1 μM [5] |
| --- | --- | --- | --- | --- | --- | --- | --- |
| 11R-VEET: peptide comprising 11 consecutive arginine residues and VEET (MAGPPHIVEETGPHVI) with 3 glycine residues; SEQ ID NO. 4; negative control (RRRRRRRRRRRGGGMAGPPHIVEETGPHVI) | did not affect | not affected | not affected | did not affect | unaffected | did not exhibit an inhibitory effect | – |
| CC[C@H](C)[C@H](NC(=O)[C@@H](NC(=O)[C@@H]1CCCN1C(=O)[C@H](Cc1c[nH]cn1)NC(=O)[C@@H]1CCCN1C(=O)CNC(=O)[C@H](C)NC(=O)[C@H](CCSC)NC(=O)CNC(=O)CNC(=O)CNC(=O)[C@H](CCCNC(=N)N)NC(=O)[C@H](CCCNC(=N)N)NC(=O)[C@H](CCCNC(=N)N)NC(=O)[C@H](CCCNC(=N)N)NC(=O)[C@H](CCCNC(=N)N)NC(=O)[C@H](CCCNC(=N)N)NC(=O)[C@H](CCCNC(=N)N)NC(=O)[C@H](CCCNC(=N)N)NC(=O)[C@H](CCCNC(=N)N)NC(=O)[C@H](CCCNC(=N)N)NC(=O)[C@@H](N)CCCNC(=N)N)C(C)C)C(=O)N[C@H](C(=O)N[C@H](C(=O)N[C@H](C(=O)NCC(=O)N1CCC[C@H]1C(=O)N[C@@H](Cc1c[nH]cn1)C(=O)N[C@@H](CCC(=O)O)C(=O)N[C@@H](CCC(=O)O)C(=O)O)[C@@H](C)O)[C@@H](C)CC)C(C)C [11R-VIVIT] (H-RRRRRRRRRRRGGGMAGPHPVIVITGPHEE-OH; N-terminus and C-terminus assumed) | – | – | – | – | – | – | ~30 h |
